pIC50: −log10 of the molar value. Where two headings read alike, the source gives them in different places.
What was measured:
Experiment in all cases: Ras GTP binding domain inhibition assay (labeled GTP)
KRas Q61H mutant = KRas Q61H mutant (Homo sapiens (Human), UniProt P01116, Q61H); details: 20 μM compound
Method in brief: (§1)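 Inhibition of labeled GTP binding is measured on immobilized His-KRas protein in Tris buffer pH 7.5 with 1 mM MgCl2 and 1 mM DTT.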

[1] = biological target: KRas G12D/Q61H double mutant (Homo sapiens (Human), UniProt P01116, G12D/Q61H); details: for inhibition at 20 µM: 20 μM compound; for pIC50: serial dilution, read-out: KRas G12D Q61H (classes E-H, IC50)
Sequence of KRas G12D/Q61H double mutant (P01116-2 other isoform, or with tags, fused parts or gaps G12D/Q61H): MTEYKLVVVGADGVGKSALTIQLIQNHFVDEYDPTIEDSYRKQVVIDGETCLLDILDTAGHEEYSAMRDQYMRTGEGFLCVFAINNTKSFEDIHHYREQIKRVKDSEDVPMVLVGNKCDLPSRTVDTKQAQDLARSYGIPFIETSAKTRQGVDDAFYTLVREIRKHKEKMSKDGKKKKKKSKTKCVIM
Method in brief: as §1

[2] = biological target: KRas G12C/Q61H double mutant (Homo sapiens (Human), UniProt P01116, G12C/Q61H); details: 20 μM compound
Sequence of KRas G12C/Q61H double mutant (P01116-2 other isoform, or with tags, fused parts or gaps G12C/Q61H): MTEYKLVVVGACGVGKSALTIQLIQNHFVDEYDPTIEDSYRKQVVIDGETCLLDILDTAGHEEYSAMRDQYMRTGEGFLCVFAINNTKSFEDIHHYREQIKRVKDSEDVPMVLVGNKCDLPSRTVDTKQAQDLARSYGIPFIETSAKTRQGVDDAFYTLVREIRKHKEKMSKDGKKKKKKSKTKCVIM
Method in brief: as §1

KRas G12C mutant = KRas G12C mutant (Homo sapiens (Human), UniProt P01116, G12C); details: 20 μM compound
Sequence of KRas G12C mutant (P01116-2 other isoform, or with tags, fused parts or gaps G12C): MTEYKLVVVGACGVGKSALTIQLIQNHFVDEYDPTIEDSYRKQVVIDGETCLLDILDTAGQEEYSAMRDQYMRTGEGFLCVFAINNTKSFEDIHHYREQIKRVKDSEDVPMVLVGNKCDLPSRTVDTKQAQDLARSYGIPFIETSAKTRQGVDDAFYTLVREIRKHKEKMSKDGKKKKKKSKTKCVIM
Method in brief: as §1

KRas wild type = KRas wild type (Homo sapiens (Human), UniProt P01116); details: 20 μM compound
Sequence of KRas wild type (P01116-2 other isoform, or with tags, fused parts or gaps): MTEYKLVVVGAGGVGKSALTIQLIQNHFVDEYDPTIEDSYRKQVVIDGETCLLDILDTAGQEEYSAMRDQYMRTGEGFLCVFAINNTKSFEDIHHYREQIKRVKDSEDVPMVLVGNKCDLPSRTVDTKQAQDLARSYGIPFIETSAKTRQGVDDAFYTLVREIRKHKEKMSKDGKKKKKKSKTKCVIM
Method in brief: as §1

KRas G12D mutant protein = KRas G12D mutant protein (Homo sapiens (Human), UniProt P01116, G12D); details: 20 μM compound
Sequence of KRas G12D mutant protein (P01116-2 other isoform, or with tags, fused parts or gaps G12D): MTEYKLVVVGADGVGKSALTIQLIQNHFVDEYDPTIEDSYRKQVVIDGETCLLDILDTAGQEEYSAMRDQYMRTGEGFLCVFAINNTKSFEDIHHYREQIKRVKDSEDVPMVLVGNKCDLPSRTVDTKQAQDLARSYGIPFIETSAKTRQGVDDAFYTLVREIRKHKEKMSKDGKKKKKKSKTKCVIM

[3] = KRas Q61H, read-out: % Inhibition at 20 μM of K-Ras mutant and wild-type protein, KRas Q61H
[4] = KRas G12D/Q61H double mutant, read-out: % Inhibition at 20 μM of K-Ras mutant and wild-type protein, KRas G12D Q61H
[5] = KRas G12C/Q61H double mutant, read-out: % Inhibition at 20 μM of K-Ras mutant and wild-type protein, KRas G12C Q61H
[6] = KRas G12C, read-out: % Inhibition at 20 μM of K-Ras mutant and wild-type protein, KRas G12C
[7] = KRas wild type, read-out: % Inhibition at 20 μM of K-Ras mutant and wild-type protein, KRas wild type
[8] = KRas G12D, read-out: % Inhibition at 20 μM of K-Ras mutant and wild-type protein, KRas G12D
[9] = read-out: % Inhibition at 20 μM KRas Q61H
[10] = read-out: % Inhibition at 20 μM KRas G12D Q61H
[11] = read-out: % Inhibition at 20 μM KRas G12C Q61H
[12] = read-out: % Inhibition at 20 μM KRas G12C
[13] = read-out: % Inhibition at 20 μM KRas wild type
[14] = read-out: % Inhibition at 20 μM KRas G12D

Sequence of KRas Q61H mutant (P01116-2 other isoform, or with tags, fused parts or gaps Q61H): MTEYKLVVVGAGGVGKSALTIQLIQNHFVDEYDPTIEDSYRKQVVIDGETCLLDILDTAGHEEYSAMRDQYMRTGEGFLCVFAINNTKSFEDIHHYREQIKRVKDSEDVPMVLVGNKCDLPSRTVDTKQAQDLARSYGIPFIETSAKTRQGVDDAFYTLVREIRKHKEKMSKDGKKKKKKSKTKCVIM

SMILES	inhibition at 20 µM (KRas Q61H mutant; [3])	inhibition at 20 µM [1, 4]	inhibition at 20 µM [2, 5]	inhibition at 20 µM (KRas G12C mutant; [6])	inhibition at 20 µM (KRas wild type; [7])	inhibition at 20 µM (KRas G12D mutant protein; [8])	inhibition at 20 µM (KRas Q61H mutant; [9])	inhibition at 20 µM [1, 10]	inhibition at 20 µM [2, 11]	inhibition at 20 µM (KRas G12C mutant; [12])	inhibition at 20 µM (KRas wild type; [13])	inhibition at 20 µM (KRas G12D mutant protein; [14])	pIC50 [1]
Oc1cccc(-c2csc3c(O)nc(-c4ccccn4)nc23)n1 [drawing 3498]	76 to 100%	51 to 75%	51 to 75%	25 to 50%	51 to 75%	25 to 50%							
O=c1[nH]c(-c2ccccn2)nc2c([C@@H]3O[C@H](CO)[C@@H](O)[C@H]3O)csc12 [drawing 3527]	51 to 75%	25 to 50%	25 to 50%	51 to 75%	25 to 50%	25 to 50%							
CC(C)c1csc2c(O)nc(-c3ccccn3)nc12 [drawing 3487]	51 to 75%	51 to 75%	51 to 75%	51 to 75%	51 to 75%	51 to 75%							
Oc1nc(-c2ccccn2)nc2c(-c3ccccn3)csc12 [drawing 2896]							25 to 50%	1 to 25%	51 to 75%	25 to 50%	51 to 75%	25 to 50%	
O=C(c1csc2c(O)nc(-c3ccccn3)nc12)N1CCC(c2ccncc2)C1 (centres unmarked) [drawing 2839]							51 to 75%	51 to 75%	51 to 75%	51 to 75%	51 to 75%	51 to 75%	
O=C(c1csc2c(O)nc(-c3ccccn3)nc12)N1CCOC(c2ccccc2Cl)C1 (centres unmarked) [drawing 2769]							76 to 100%	51 to 75%	76 to 100%	25 to 50%	51 to 75%	25 to 50%	5.00 to 5.30
Oc1nc(-c2ccccn2)nc2c(CC3CCNC3)csc12 (centres unmarked) [drawing 3526]	51 to 75%	51 to 75%	51 to 75%	51 to 75%	25 to 50%	51 to 75%							
COc1cccc(CN2CCN(C(=O)c3csc4c(O)nc(-c5ccccn5)nc34)CC2)c1 [drawing 2763]							76 to 100%	25 to 50%	76 to 100%	25 to 50%	25 to 50%	76 to 100%	
COc1ccc(-c2csc3c(O)nc(-c4ccccn4)nc23)c(C)c1 [drawing 2881]							51 to 75%	51 to 75%	51 to 75%	51 to 75%	25 to 50%	51 to 75%	
Oc1nc(-c2ccccn2)nc2c(-c3cc(CN4CCCC4)ccc3F)csc12 [drawing 3502]	76 to 100%	51 to 75%	51 to 75%	51 to 75%	25 to 50%	76 to 100%							
Oc1nc(-c2ccccn2)nc2c(-c3ccc(OC(F)F)cc3F)csc12 [drawing 2876]							51 to 75%	51 to 75%	51 to 75%	25 to 50%	51 to 75%	51 to 75%	
Oc1nc(-c2ccccn2)nc2c(-c3cc(Cl)cc(Cl)c3)csc12 [drawing 2848]							25 to 50%	25 to 50%	1 to 25%	25 to 50%	1 to 25%	25 to 50%	
CNC(=O)c1ccc(-c2csc3c(O)nc(-c4ccccn4)nc23)cc1C [drawing 2885]							25 to 50%	25 to 50%	25 to 50%	25 to 50%	25 to 50%	25 to 50%	
Oc1nc(-c2ccccn2)nc2c(-c3ccccc3Cl)csc12 [drawing 2695]							51 to 75%	51 to 75%	51 to 75%	25 to 50%	1 to 25%	25 to 50%	
COc1ccc(COC[C@H]2O[C@@H](c3csc4c(=O)[nH]c(-c5ccccn5)nc34)[C@H](O)[C@@H]2O)cc1 [drawing 3533]	51 to 75%	25 to 50%	51 to 75%	25 to 50%	1 to 25%	25 to 50%							
COc1cnc(-c2nccn2C)nc1O [drawing 3513]	76 to 100%	76 to 100%	76 to 100%	51 to 75%	51 to 75%	76 to 100%							
O=C(c1csc2c(O)nc(-c3ccccn3)nc12)N1CCC(c2cccc(O)c2)C1 (centres unmarked) [drawing 2840]							76 to 100%	76 to 100%	76 to 100%	51 to 75%	51 to 75%	76 to 100%	
CC1CN(c2ccccc2)CCN1C(=O)c1csc2c(O)nc(-c3ccccn3)nc12 (centres unmarked) [drawing 2761]							76 to 100%	51 to 75%	76 to 100%	51 to 75%	25 to 50%	76 to 100%	5.00 to 5.30
Oc1nc(-c2ccccn2)nc2cc(-c3ccncc3)sc12 [drawing 3561]	25 to 50%	51 to 75%	25 to 50%	25 to 50%	51 to 75%	51 to 75%							
Cc1sc2c(O)nc(-c3ccccn3)nc2c1-c1ccccc1Cl [drawing 3515]	76 to 100%	51 to 75%	51 to 75%	1 to 25%	1 to 25%	51 to 75%							
O=C(c1csc2c(O)nc(-c3ccccn3)nc12)N1CCNC(c2cn[nH]c2)C1 (centres unmarked) [drawing 2858]							76 to 100%	51 to 75%	51 to 75%	25 to 50%	25 to 50%	25 to 50%	
O=S1(=O)CCN(Cc2cccc(-c3csc4c(O)nc(-c5ccccn5)nc34)c2)CC1 [drawing 2864]							51 to 75%	51 to 75%	51 to 75%	25 to 50%	51 to 75%	51 to 75%	
Oc1nc(-c2ccccn2)nc2c(-c3ccsc3)csc12 [drawing 2875]							25 to 50%	25 to 50%	25 to 50%	51 to 75%	1 to 25%	51 to 75%	
